Columns and labels:
Experiment in all cases: cells
no-11 = type: functional, cell-based, Homo sapiens; conditions: Homo sapiens;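 note: growth inhibition of human NO-11 cells, read out with a cell viability assay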
Description: SANGER: Inhibition of human no-11 cell growth in a cell viability assay.

NCI-H358 = type: functional, cell-based, Homo sapiens; conditions: Homo sapiens, NCI-H358;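 note: growth inhibition of NCI-H358 human cells, read out with a cell viability assay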
Description: SANGER: Inhibition of human NCI-H358 cell growth in a cell viability assay.

S-117 = type: functional, cell-based, Homo sapiens; conditions: Homo sapiens, S-117
Description: SANGER: Inhibition of human S-117 cell growth in a cell viability assay.

SK-HEP1 = type: functional, cell-based, Homo sapiens, SK-HEP-1; conditions: Homo sapiens, SK-HEP1;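 note: cell viability readout used to quantify reduction in proliferation of human SK-HEP-1 cells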
Description: SANGER: Inhibition of human SK-HEP-1 cell growth in a cell viability assay.

UACC-257 = type: functional, cell-based, Homo sapiens; conditions: Homo sapiens, UACC-257
Description: SANGER: Inhibition of human UACC-257 cell growth in a cell viability assay.

NCI-H661 = type: functional, cell-based, Homo sapiens; conditions: Homo sapiens, NCI-H661;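 note: cell viability assay read-out, IC50 being the concentration that inhibits growth of the cells by half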
Description: SANGER: Inhibition of human NCI-H661 cell growth in a cell viability assay.

T47D = type: functional, cell-based, Homo sapiens; conditions: Homo sapiens, T47D;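 note: growth inhibition of human T47D cells, measured with a cell viability assay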
Description: SANGER: Inhibition of human T47D cell growth in a cell viability assay.

CAL-62 = type: functional, cell-based, Homo sapiens; conditions: Homo sapiens, CAL-62;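 note: growth inhibition of CAL-62 cells, read out with a cell viability assay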
Description: SANGER: Inhibition of human CAL-62 cell growth in a cell viability assay.

NCI-H1693 = type: functional, cell-based, Homo sapiens; conditions: Homo sapiens, NCI-H1693;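 note: growth inhibition of the human cell line, read out with a cell viability assay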
Description: SANGER: Inhibition of human NCI-H1693 cell growth in a cell viability assay.

NCI-H23 = type: functional, cell-based, Homo sapiens; conditions: Homo sapiens, NCI-H23;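 note: cell viability assay measuring growth inhibition of NCI-H23 cells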
Description: SANGER: Inhibition of human NCI-H23 cell growth in a cell viability assay.

HT-144 = type: functional, cell-based, Homo sapiens; conditions: Homo sapiens, HT-144
Description: SANGER: Inhibition of human HT-144 cell growth in a cell viability assay.

UMUC3 = type: functional, cell-based, Homo sapiens; conditions: Homo sapiens, UMUC3;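 note: growth inhibition of human UM-UC-3 cells, read out with a cell viability assay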
Description: SANGER: Inhibition of human UM-UC-3 cell growth in a cell viability assay.

JAR = type: functional, cell-based, Homo sapiens; conditions: Homo sapiens, JAR;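 note: growth inhibition of human JAR cells determined with a cell viability assay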
Description: SANGER: Inhibition of human JAR cell growth in a cell viability assay.

NCI-H2228 = type: functional, cell-based, Homo sapiens; conditions: Homo sapiens, NCI-H2228;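 note: growth inhibition of human NCI-H2228 cells, read out by a cell viability assay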
Description: SANGER: Inhibition of human NCI-H2228 cell growth in a cell viability assay.

CaR-1 = type: functional, cell-based, Homo sapiens; conditions: Homo sapiens, CaR-1;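 note: growth inhibition of human CaR-1 cancer cells, read out with a cell viability assay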
Description: SANGER: Inhibition of human CaR-1 cell growth in a cell viability assay.

Calu-3 = type: functional, cell-based, Homo sapiens; conditions: Homo sapiens, Calu-3;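 note: growth inhibition of human Calu-3 cells, determined with a cell viability assay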
Description: SANGER: Inhibition of human Calu-3 cell growth in a cell viability assay.

ACN = type: functional, cell-based, Homo sapiens; conditions: Homo sapiens, ACN;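 note: growth inhibition of the human ACN cell line, read out via cell viability testing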
Description: SANGER: Inhibition of human ACN cell growth in a cell viability assay.

HPAF-II = type: functional, cell-based, Homo sapiens; conditions: Homo sapiens, HPAF-II;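 note: growth inhibition of HPAF-II cells, read out with a cell viability assay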
Description: SANGER: Inhibition of human HPAF-II cell growth in a cell viability assay.

ChaGo-K-1 = type: functional, cell-based; conditions: Homo sapiens;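 note: growth inhibition of ChaGo-K-1 cells, read out with a cell viability assay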
Description: SANGER: Inhibition of human ChaGo-K-1 cell growth in a cell viability assay.

NCI-H526 = type: functional, cell-based; conditions: Homo sapiens;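 note: growth inhibition of the human NCI-H526 cell line, measured by a cell viability assay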
Description: SANGER: Inhibition of human NCI-H526 cell growth in a cell viability assay.

RVH-421 = type: functional, cell-based, Homo sapiens; conditions: Homo sapiens, RVH-421
Description: SANGER: Inhibition of human RVH-421 cell growth in a cell viability assay.

OVCAR-8 = type: functional, cell-based, Homo sapiens; conditions: Homo sapiens, OVCAR-8;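 note: growth inhibition of human OVCAR-8 cells, read out by a cell viability assay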
Description: SANGER: Inhibition of human OVCAR-8 cell growth in a cell viability assay.

MZ2-MEL = type: functional, cell-based, Homo sapiens; conditions: Homo sapiens, MZ2-MEL;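 note: growth inhibition of MZ2-MEL cells read out with a cell viability assay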
Description: SANGER: Inhibition of human MZ2-MEL cell growth in a cell viability assay.

HT1197 = type: functional, cell-based, Homo sapiens, HT-1197; conditions: Homo sapiens, HT1197
Description: SANGER: Inhibition of human HT-1197 cell growth in a cell viability assay.

BB65-RCC = type: functional, cell-based, Homo sapiens; conditions: Homo sapiens, BB65-RCC;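 note: growth inhibition of the cell line, measured with a cell viability assay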
Description: SANGER: Inhibition of human BB65-RCC cell growth in a cell viability assay.

HCT-116 = type: functional, cell-based, Homo sapiens; conditions: Homo sapiens, HCT-116
Description: SANGER: Inhibition of human HCT-116 cell growth in a cell viability assay.

KARPAS-299 = type: functional, cell-based; conditions: Homo sapiens
Description: SANGER: Inhibition of human KARPAS-299 cell growth in a cell viability assay.

SK-LMS-1 = type: functional, cell-based, Homo sapiens; conditions: Homo sapiens, SK-LMS-1;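 note: growth inhibition of human SK-LMS-1 cells, read out with a cell viability assay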
Description: SANGER: Inhibition of human SK-LMS-1 cell growth in a cell viability assay.

D-542MG = type: functional, cell-based, Homo sapiens; conditions: Homo sapiens, D-542MG
Description: SANGER: Inhibition of human D-542MG cell growth in a cell viability assay.

NCI-H1770 = type: functional, cell-based; conditions: Homo sapiens;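 note: growth inhibition of NCI-H1770 cells determined with a viability readout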
Description: SANGER: Inhibition of human NCI-H1770 cell growth in a cell viability assay.

TE-5 = type: functional, cell-based, Homo sapiens; conditions: Homo sapiens, TE-5;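 note: inhibition of cell growth, read out by a cell viability assay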
Description: SANGER: Inhibition of human TE-5 cell growth in a cell viability assay.

COLO-684 = type: functional, cell-based; conditions: Homo sapiens
Description: SANGER: Inhibition of human COLO-684 cell growth in a cell viability assay.

SNU1 = type: functional, cell-based; conditions: Homo sapiens;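 note: growth inhibition of human NCI-SNU-1 cells, measured with a cell viability assay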
Description: SANGER: Inhibition of human NCI-SNU-1 cell growth in a cell viability assay.

NCI-H650 = type: functional, cell-based, Homo sapiens; conditions: Homo sapiens, NCI-H650;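 note: growth inhibition of NCI-H650 cells, read out by a viability assay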
Description: SANGER: Inhibition of human NCI-H650 cell growth in a cell viability assay.

LNCaP-Clone-FGC = type: functional, cell-based, Homo sapiens; conditions: Homo sapiens, LNCaP-Clone-FGC
Description: SANGER: Inhibition of human LNCaP-Clone-FGC cell growth in a cell viability assay.

SW872 = type: functional, cell-based, Homo sapiens; conditions: Homo sapiens, SW872;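 note: growth inhibition of SW872 cells, read out by a viability assay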
Description: SANGER: Inhibition of human SW872 cell growth in a cell viability assay.

C3A = type: functional, cell-based, Homo sapiens; conditions: Homo sapiens, C3A;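 note: growth inhibition of C3A human cells, quantified with a cell viability readout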
Description: SANGER: Inhibition of human C3A cell growth in a cell viability assay.

DEL = type: functional, cell-based; conditions: Homo sapiens;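 note: growth inhibition of the human DEL cell line, read out with a cell viability assay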
Description: SANGER: Inhibition of human DEL cell growth in a cell viability assay.

HEC-1 = type: functional, cell-based, Homo sapiens; conditions: Homo sapiens, HEC-1;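 note: growth inhibition of the cell line, read out with a cell viability assay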
Description: SANGER: Inhibition of human HEC-1 cell growth in a cell viability assay.

TE-8 = type: functional, cell-based, Homo sapiens; conditions: Homo sapiens, TE-8;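 note: growth inhibition of TE-8 cells, measured with a cell viability readout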
Description: SANGER: Inhibition of human TE-8 cell growth in a cell viability assay.

RMG-I = type: functional, cell-based, Homo sapiens; conditions: Homo sapiens, RMG-I;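 note: growth inhibition of human RMG-I cells, read out with a cell viability assay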
Description: SANGER: Inhibition of human RMG-I cell growth in a cell viability assay.

COLO-829 = type: functional, cell-based, Homo sapiens; conditions: Homo sapiens, COLO-829
Description: SANGER: Inhibition of human COLO-829 cell growth in a cell viability assay.

SK-MEL-1 = type: functional, cell-based; conditions: Homo sapiens;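 note: growth inhibition of human SK-MEL-1 cells, read out by a cell viability assay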
Description: SANGER: Inhibition of human SK-MEL-1 cell growth in a cell viability assay.

NCI-H1563 = type: functional, cell-based, Homo sapiens; conditions: Homo sapiens, NCI-H1563;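 note: growth inhibition of human NCI-H1563 cells, read out with a cell viability assay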
Description: SANGER: Inhibition of human NCI-H1563 cell growth in a cell viability assay.

BEN = type: functional, cell-based, Homo sapiens; conditions: Homo sapiens, BEN;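 note: growth inhibition of the BEN cell line, read out with a cell viability assay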
Description: SANGER: Inhibition of human BEN cell growth in a cell viability assay.

ACHN = type: functional, cell-based, Homo sapiens; conditions: Homo sapiens, ACHN;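 note: cell viability read-out used to gauge how strongly growth of human ACHN cells is suppressed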
Description: SANGER: Inhibition of human ACHN cell growth in a cell viability assay.

DU-4475 = type: functional, cell-based; conditions: Homo sapiens
Description: SANGER: Inhibition of human DU-4475 cell growth in a cell viability assay.

A-431 = type: functional, cell-based, Homo sapiens; conditions: Homo sapiens, A-431;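 note: growth inhibition of A-431 cells, determined with a cell viability read-out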
Description: SANGER: Inhibition of human A431 cell growth in a cell viability assay.

PFSK-1 = type: functional, cell-based, Homo sapiens; conditions: Homo sapiens, PFSK-1;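 note: cell viability assay measuring how strongly compounds suppress growth of human PFSK-1 cells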
Description: SANGER: Inhibition of human PFSK-1 cell growth in a cell viability assay.

NCI-H209 = type: functional, cell-based; conditions: Homo sapiens;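 note: growth inhibition of human NCI-H209 cells, measured by a cell viability assay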
Description: SANGER: Inhibition of human NCI-H209 cell growth in a cell viability assay.

HL-60 = type: functional, cell-based; conditions: Homo sapiens;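 note: growth inhibition of human HL-60 cells, read out with a cell viability assay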
Description: SANGER: Inhibition of human HL-60 cell growth in a cell viability assay.

Structure (SMILES): Cn1cncc1[C@@](N)(c1ccc(Cl)cc1)c1ccc2c(c1)c(-c1cccc(Cl)c1)cc(=O)n2C [TIPIFARNIB]
- IC50 (no-11): 4010 nM
- IC50 (NCI-H358): 4920 nM
- IC50 (S-117): 9590 nM
- IC50 (SK-HEP1): 714 nM
- IC50 (UACC-257): > 16000 nM
- IC50 (NCI-H661): 7500 nM
- IC50 (T47D): > 16000 nM
- IC50 (CAL-62): 1790 nM
- IC50 (NCI-H1693): > 16000 nM
- IC50 (NCI-H23): > 16000 nM
- IC50 (HT-144): 1450 nM
- IC50 (UMUC3): 12600 nM
- IC50 (JAR): > 16000 nM
- IC50 (NCI-H2228): 4980 nM
- IC50 (CaR-1): > 16000 nM
- IC50 (Calu-3): 4430 nM
- IC50 (ACN): 1460 nM
- IC50 (HPAF-II): 7570 nM
- IC50 (ChaGo-K-1): 1750 nM
- IC50 (NCI-H526): > 16000 nM
- IC50 (RVH-421): > 16000 nM
- IC50 (OVCAR-8): 4450 nM
- IC50 (MZ2-MEL): 1900 nM
- IC50 (HT1197): 11700 nM
- IC50 (BB65-RCC): 2640 nM
- IC50 (HCT-116): 4880 nM
- IC50 (KARPAS-299): > 16000 nM
- IC50 (SK-LMS-1): 184 nM
- IC50 (D-542MG): 1410 nM
- IC50 (NCI-H1770): > 16000 nM
- IC50 (TE-5): 11900 nM
- IC50 (COLO-684): 5710 nM
- IC50 (SNU1): > 16000 nM
- IC50 (NCI-H650): 773 nM
- IC50 (LNCaP-Clone-FGC): 11500 nM
- IC50 (SW872): 1450 nM
- IC50 (C3A): 4640 nM
- IC50 (DEL): 1030 nM
- IC50 (HEC-1): 7150 nM
- IC50 (TE-8): 928 nM
- IC50 (RMG-I): > 16000 nM
- IC50 (COLO-829): 12600 nM
- IC50 (SK-MEL-1): > 16000 nM
- IC50 (NCI-H1563): > 16000 nM
- IC50 (BEN): 5400 nM
- IC50 (ACHN): 1120 nM
- IC50 (DU-4475): 2190 nM
- IC50 (A-431): 655 nM
- IC50 (PFSK-1): > 16000 nM
- IC50 (NCI-H209): > 16000 nM
- IC50 (HL-60): 6930 nM

Structure (SMILES): CCC1=C[C@@H]2CN(C1)Cc1c([nH]c3ccccc13)[C@@](C(=O)OC)(c1cc3c(cc1OC)N(C)[C@H]1[C@@](O)(C(=O)OC)[C@H](OC(C)=O)[C@]4(CC)C=CCN5CC[C@]31[C@@H]54)C2 [VINORELBINE]
- IC50 (no-11): > 64 nM
- IC50 (NCI-H358): 5.89 nM
- IC50 (S-117): > 64 nM
- IC50 (SK-HEP1): 4.52 nM
- IC50 (UACC-257): 30.4 nM
- IC50 (NCI-H661): 20.4 nM
- IC50 (T47D): > 64 nM
- IC50 (CAL-62): 8.18 nM
- IC50 (NCI-H1693): > 64 nM
- IC50 (NCI-H23): 60.1 nM
- IC50 (HT-144): 0.591 nM
- IC50 (UMUC3): 21.2 nM
- IC50 (JAR): > 64 nM
- IC50 (NCI-H2228): 12.9 nM
- IC50 (CaR-1): 59.1 nM
- IC50 (Calu-3): 18 nM
- IC50 (ACN): 1.33 nM
- IC50 (HPAF-II): 16.6 nM
- IC50 (ChaGo-K-1): 6.69 nM
- IC50 (NCI-H526): 8.68 nM
- IC50 (RVH-421): 3.88 nM
- IC50 (OVCAR-8): 6.6 nM
- IC50 (MZ2-MEL): 43 nM
- IC50 (HT1197): > 64 nM
- IC50 (BB65-RCC): 61.8 nM
- IC50 (HCT-116): 3.37 nM
- IC50 (KARPAS-299): > 64 nM
- IC50 (SK-LMS-1): 1.46 nM
- IC50 (D-542MG): > 64 nM
- IC50 (NCI-H1770): 5.53 nM
- IC50 (TE-5): 11.7 nM
- IC50 (COLO-684): 13.7 nM
- IC50 (SNU1): 32.7 nM
- IC50 (NCI-H650): 16.1 nM
- IC50 (LNCaP-Clone-FGC): 17.9 nM
- IC50 (SW872): 5.65 nM
- IC50 (C3A): > 64 nM
- IC50 (DEL): 3.63 nM
- IC50 (HEC-1): 22.7 nM
- IC50 (TE-8): 46 nM
- IC50 (RMG-I): > 64 nM
- IC50 (COLO-829): 0.105 nM
- IC50 (SK-MEL-1): > 64 nM
- IC50 (NCI-H1563): 12.8 nM
- IC50 (BEN): 58.1 nM
- IC50 (ACHN): 45.8 nM
- IC50 (DU-4475): 48.1 nM
- IC50 (A-431): 2.9 nM
- IC50 (PFSK-1): 20.5 nM
- IC50 (NCI-H209): 50.8 nM
- IC50 (HL-60): > 64 nM

Reference: ChEMBL document CHEMBL1201861, “Genomics of Drug Sensitity in Cancer screening data, Wellcome Trust Sanger Institute”
